Data taken from patent US11400082B2, “Methods of treating elevated plasma cholesterol” (Montréal Heart Institute, priority 2017, dated 2022).
Read-outs that look alike come from different tables or passages of the source.

Columns and labels:
LDLR protein = test: Western blot analysis, relative quantification of LDLR protein levels; format: cell-based, human; details: overnight, hepatoma cells (HepG2, FIG. 13), normalized to actin, vehicle (DMSO) = 1
Experimental: For sterol-regulated conditions, HepG2 cells were incubated in 5% LPDS, 50 μM mevastatin, and 50 μM mevalonolactone in the absence (-sterols) or presence of 1 μg/ml 25-hydroxycholesterol and 10 μg/ml cholesterol (+sterols). For inhibitor treatments HepG2 cells were treated with DMSO or 10 μM compounds 2 in combination with U0126 (25 μM, catalog no. 9903, Cell Signaling Technology), Cycloheximide (CHX; 20 μg/ml, catalog no. C7698, Sigma-Aldrich), PD153035 (20 μM, catalog no. 14879, Cayman Chemical), bisindolylmaleimide I (BIM; 10 μM, catalog no. 13298, Cayman Chemical), H-89 (10 μM, catalog no. 10010556, Cayman Chemical), Dorsomorphin (5 μM, catalog no. 11967, Cayman Chemical) or 5-Azacytidine (10 μM, catalog no. A2385, Sigma-Aldrich).
Treated cells from Example 28 were washed three times in phosphate-buffered saline (PBS) and lysed in radioimmune precipitation assay buffer (50 mM Tris/HCl, pH 8.0, 1% (v/v) Nonidet P-40, 0.5% sodium deoxycholate, 150 mM NaCl, and 0.1% (v/v) SDS) supplemented with a complete protease inhibitor mixture (catalog no. 11 697 498 001, Roche Applied Science). Proteins were separated by 8% SDS polyacrylamide gel electrophoresis, blotted on nitrocellulose membranes (Bio-Rad), and blocked for 1 h in Tris-buffered saline-Tween 20 (TBS-T; 50 mM Tris-HCl, pH 7.5, 150 mM NaCl, 0.1% Tween 20) containing 5% nonfat dry milk. Membranes were then incubated overnight in TBS-T supplemented with 1% nonfat milk and the indicated antibodies; goat anti-human LDLR (1:1000; catalog no. AF2148, R&D Systems), rabbit anti-actin (1:5000; catalog no. A2066, Sigma-Aldrich). Appropriate HRP-conjugated secondary antibodies (1:10,000; GE healthcare) were used for detection using the Western Lightning Ultra chemiluminescence kit (catalog no. NEI112001EA, PerkinElmer Life Sciences) and BioFlex EC Films (catalog no. CLEC810, InterScience). Unsaturated films were numerized using the high resolution CanoScan 9000F scanner and corresponding bands were quantified using the ImageJ software (NIH). Relative quantification of LDLR protein levels were normalized to that of actin and compared to vehicle (DMSO) herein determined as 1.

in vitro = details: pH 7.4; for -k: 1 μM; for half-life at 1 μM / microsomal CLint at 1 μM: microsomes
Experimental: Pooled human liver microsomes (HLM; Cat #X008067 lot IHG) and pooled male Sprague Dawley rat liver microsomes (RLM; Cat #M00001 Lot NNK) were purchased from BioreclamationIVT, Baltimore, Md. NADPH (Cat #N1630, 95% HPLC) and DMSO (GC grade) were purchased from Sigma-Aldrich, Canada. Potassium phosphate buffer (100 mM) with magnesium chloride pH 7.4 was prepared freshly. […] Reactions were initiated by adding NADPH (final concentration 1 mM) in all the wells. Reactions without NADPH were also incubated (final point only) to rule out non-NADPH metabolism or chemical instability in the incubation buffer. Reactions were terminated at each time point (0, 5, 10, 20, 30, 45 and 60 min) by transferring 50 μL in a new 96 well plate and adding 100 μl of acetonitrile containing an internal standard (labetalol at 2 μM). The plates were centrifuged at 4000 rpm for 5 min, and an aliquot of supernatant was diluted with one volume of water+0.1% formic acid before analysis by LC-MS/MS. Reference samples were also prepared at concentrations between 0.002 and 2 μM in buffer containing microsomes, by adding the diluted solutions of the compound to the buffer containing microsomes quenched with 2 volume of acetonitrile containing the internal standard (whereas the incubation T0 is obtained by quenching the microsomes containing the compound, then adding NADPH). Samples were monitored for parent compound disappearance in Multi Reaction Monitoring (MRM) mode using LC-MS/MS. The peak area ratios of analyte versus internal standard compared to the calibration curve were used to calculate concentration at each time point. The elimination constant (ke, min-1) was obtained from the log-linear regression of the concentration (y) versus time (t). The half-life was calculated as T½ (min)=0.693/ke. The microsomal intrinsic clearance (Clint, μL/min/mg of protein) was calculated by the following equation: […]

[1] = Pharmacokinetics in adult Sprague-Dawley rats; format: in vivo; details: average n = 4; for Cmax / AUC / AUC(0-t): rat blood
Experimental: All animal studies were approved by the Montreal Heart Institute (MHI) Animal Care and Ethical committee. Pharmacokinetic experiments were performed in collaboration at the Montreal Heart Institute in collaboration with the Platform of Biopharmacy at Université de Montréal. Briefly, Compound 2 (formulation PG:H20; 50:50 stock solution 2.5 mg/ml) was administered intravenously (iv) at 5 mg/kg (n=4) or by oral gavage (PO) at 25 mg/kg (n=4) in adult Sprague-Dawley male rats (˜200 g). […] Samples were mixed and centrifuged at 15000 rpm for 5 min. 50 μL of supernatant were transferred to an HPLC plate, and 100 μL of water+0.1% formic acid were added. […] Samples were analyzed in MRM mode using LC-MS/MS. The calibration curve was plotted using the ratio of the analyte peak area and the IS peak area, using a quadratic regression. Pharmacokinetic (PK) parameters were calculated using Kinetica Software for PK/PD Data Analysis, Simulation and Reporting (Thermo Fisher), based on the blood concentrations of each animal. Results are described in Table 4 and illustrated in FIG. 20.

[2] = male, Sprague-Dawley, rat, whole blood, PO 25 mg/kg
[3] = male, Sprague-Dawley, rat, whole blood, iv 5 mg/kg
[4] = male, Sprague-Dawley, whole blood, PO 25 mg/kg
[5] = male, Sprague-Dawley, whole blood, iv 5 mg/kg

With `O=C(NO)c1ncc(COc2ccc(F)cc2)c(CO)c1O` [Compound 2, 5-(4-fluoro-phenoxymethyl)-3-hydroxy-4-hydroxymethyl-pyridine-2-carboxylic acid hydroxyamide] the “LDLR Fold Change 10 nM” value (LDLR protein; 10 nM) was 2, the “LDLR Fold Change 10 μM” value (LDLR protein; 10 μM) was 6.3 and the “-k” value (in vitro; human) was 0.000703 ± 1.9e-05 min⁻¹. For the same compound, the half-life at 1 μM (in vitro; human) was 16.4 ± 0.45 h, the microsomal CLint at 1 μM (in vitro; human) was 1.17 ± 0.03 µL/min/mg and the “-k” value (in vitro; male, Sprague Dawley, rat) was 0.00126 ± 0.00019 min⁻¹. It also gave a half-life at 1 μM (in vitro; male, Sprague Dawley, rat) of 6.73 ± 0.467 h, a microsomal CLint at 1 μM (in vitro; male, Sprague Dawley, rat) of 6.19 ± 0.42 µL/min/mg and a Lz ([1]; PO 25 mg/kg) of 0.24 h⁻¹. For the same compound, the Vss ([1]; PO 25 mg/kg) was 2.43 L, the clearance ([1]; PO 25 mg/kg) was 13.44 mL/min and the thalf ([1]; PO 25 mg/kg) was 2.97 h. The Cmax ([1]; PO 25 mg/kg) was 7.09 μMolar, the Lz ([1]; iv 5 mg/kg) was 0.12 h⁻¹ and the thalf ([1]; iv 5 mg/kg) was 6.60 h. It also gave a Cmax ([1]; iv 5 mg/kg) of 81.12 μMolar, a bioavailability ([1]; male, Sprague-Dawley, rat, whole blood, PO 25 mg/kg vs iv 5 mg/kg) of 15% and an MRT [1, 2] of 3.44 h. The Tmax [1, 2] was 0.33 h, the MRT [1, 3] was 0.55 h and the Tmax [1, 3] was 0.08 h. For the same compound, the clearance ([1]; male, Sprague-Dawley, rat, whole blood, iv 5 mg/kg, read-out: Clearance) was 2.2 mL/min, the Vd ([1]; male, Sprague-Dawley, rat, whole blood, iv 5 mg/kg, read-out: Vss) was 0.08 L and the AUC [1, 4] was 24.3 µM·h. It also gave an AUC(0-t) [1, 4] of 24.2 µM·h, an AUC [1, 5] of 31.9 µM·h and an AUC(0-t) [1, 5] of 31.8 µM·h.
